According to ChEMBL document CHEMBL1127502, “Mixed 5-HT1A/D-2 activity of a new model of arylpiperazines: 1-aryl-4-[3-(1,2-dihydronaphthalen-4-yl)-n-propyl]piperazines. 1. Synthesis and structure-activity relationships” (J Med Chem, 1994):

Assays:
[1] = molecular target: Serotonin 2 (5-HT2) receptor (Rattus norvegicus, UniProt P30994+P08909+P14842); assay: Inhibition of binding of radioligand [3H]ketanserin to 5-hydroxytryptamine 2 receptor in rat cerebral cortex; format: tissue-based
D(2) dopamine receptor [2] = molecular target: T1, D(2) dopamine receptor (Rattus norvegicus, UniProt P61169); assay: Inhibition of binding of radioligand [3H]spiroperidol to dopamine D2 receptor in rat striatal membranes; format: cell membranes, Membrane
T1 sequence (P61169 whole entry): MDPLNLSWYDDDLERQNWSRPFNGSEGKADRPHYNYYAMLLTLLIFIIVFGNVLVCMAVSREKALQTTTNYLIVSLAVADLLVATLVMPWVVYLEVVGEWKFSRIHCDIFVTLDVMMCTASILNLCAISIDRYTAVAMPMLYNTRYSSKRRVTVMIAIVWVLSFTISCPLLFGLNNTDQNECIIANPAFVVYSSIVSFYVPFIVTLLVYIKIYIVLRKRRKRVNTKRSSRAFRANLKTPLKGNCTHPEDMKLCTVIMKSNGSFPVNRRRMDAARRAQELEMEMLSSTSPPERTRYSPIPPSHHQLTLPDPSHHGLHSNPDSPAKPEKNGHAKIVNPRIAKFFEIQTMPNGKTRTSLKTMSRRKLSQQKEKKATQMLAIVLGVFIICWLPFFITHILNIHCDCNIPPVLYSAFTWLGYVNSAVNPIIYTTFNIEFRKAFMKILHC

[3] = molecular target: T2, 5-hydroxytryptamine receptor 1A (Rattus norvegicus, UniProt P19327); assay: In vitro ability to inhibit binding of radioligand [3H]8-OH-DPAT to 5-hydroxytryptamine 1A receptor in rat cerebral cortex; format: tissue-based
T2 sequence (P19327 whole entry): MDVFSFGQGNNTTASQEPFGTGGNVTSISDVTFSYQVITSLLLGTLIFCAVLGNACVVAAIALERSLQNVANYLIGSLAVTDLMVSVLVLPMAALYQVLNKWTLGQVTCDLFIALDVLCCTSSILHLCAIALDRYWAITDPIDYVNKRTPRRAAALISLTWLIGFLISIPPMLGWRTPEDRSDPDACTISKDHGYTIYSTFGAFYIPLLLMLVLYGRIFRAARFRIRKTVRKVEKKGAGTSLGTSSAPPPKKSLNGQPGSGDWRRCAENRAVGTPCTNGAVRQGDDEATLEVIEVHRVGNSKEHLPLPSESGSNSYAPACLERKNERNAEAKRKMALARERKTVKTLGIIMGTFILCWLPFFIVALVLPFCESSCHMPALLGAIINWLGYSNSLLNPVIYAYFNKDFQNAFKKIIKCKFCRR

D(2) dopamine receptor [4] = molecular target: T1, D(2) dopamine receptor; assay: In vito ability to inhibit binding of radioligand [3H]spiroperidol to dopamine D2 receptor in rat corpora striata
Rattus norvegicus = assay: Effective dose required to inhibit behavior effects induced by 8-OH-DPAT in reserpinized rats after subcutaneous administration; format: functional; details: sc
D(2) dopamine receptor [5] = molecular target: T1, D(2) dopamine receptor; assay: In vitro ability to inhibit binding of radioligand [3H]spiroperidol to dopamine D2 receptor in rat striatal membranes; format: cell membranes, Membrane
D(2) dopamine receptor [6] = molecular target: T1, D(2) dopamine receptor; assay: In vitro ability to inhibit binding of radioligand [3H]spiroperidol to dopamine D2 receptor in rat corpora striata

Row | Structure (SMILES) | IC50 [1] [nM] | IC50 (D(2) dopamine receptor [2]) [nM] | IC50 [3] [nM] | Ki (D(2) dopamine receptor [4]) [nM] | Ki [3] [nM] | Ki (D(2) dopamine receptor [5]) [nM] | Ki (D(2) dopamine receptor [6]) [nM] | ED50 (Rattus norvegicus) [mg/kg]
1 | COc1cccc2c1C(CCCN1CCN(c3cccc(Cl)c3)CC1)=CCC2 | 1340 | 484 | 31.4 |  |  |  |  | 
2 | COc1cccc2c1C(CCCN1CCN(c3cccc(C(F)(F)F)c3)CC1)=CCC2 | 2370 | 644 | 55.9 |  |  |  |  | 24.2
3 | COc1ccc2c(c1)CCC=C2CCCN1CCNCC1 | > 10000 | > 10000 | > 10000 |  |  |  |  | 
4 | COc1ccccc1N1CCN(CCCC2=CCCc3cccc(OC)c32)CC1 | 770 | 17.4 | 8.8 |  |  |  |  | 
5 | COc1ccc2c(c1)CCC=C2CCCN1CCN(c2ccccc2OC)CC1 | 391 | 90.6 | 2 |  | 1.78 |  | 22.4 | 0.76
6 | COc1ccccc1N1CCN(CCCC2=CCCc3ccccc32)CC1 | 104 | 14.7 | 15.7 |  |  |  |  | 
7 | COc1ccc2c(c1)CCC=C2CCCN1CCN(c2cccc(Cl)c2)CC1 | 133 | 768 | 131 |  |  |  |  | 
8 | COc1ccc2c(c1)CCC=C2CCCN1CCN(c2cccc(C(F)(F)F)c2)CC1 | 1170 | 1290 | 138 |  |  |  |  | 

Further lines, with some results ahead:

Row | IC50 [1] [nM] | IC50 (D(2) dopamine receptor [2]) [nM] | IC50 [3] [nM] | Ki (D(2) dopamine receptor [4]) [nM] | Ki [3] [nM] | Ki (D(2) dopamine receptor [5]) [nM] | Ki (D(2) dopamine receptor [6]) [nM] | Structure (SMILES) | ED50 (Rattus norvegicus) [mg/kg]
9 | 932 | 201 | 161 |  |  |  |  | COc1ccc2c(c1)CCC=C2CCCN1CCN(c2cc(OC)ccc2OC)CC1 | 
10 | 205 | 119 | 1.4 | 29.5 | 1.26 |  |  | COc1cccc2c1C(CCCN1CCN(c3ccccn3)CC1)=CCC2 | 
11 |  |  |  |  |  | 9.55 |  | COc1ccccc1N1CCN(CCCCN2C(=O)c3ccccc3C2=O)CC1 [NAN-190] | 
12 | 119 | 777 | 147 |  |  |  |  | COc1ccc2c(c1)CCC=C2CCCN1CCN(c2ccccc2)CC1 | 
13 | 204 | 303 |  |  |  |  |  | COc1cccc2c1C(CCCN1CCN(c3ccccc3)CC1)=CCC2 | 
14 | 146 | 778 | 63.6 |  |  |  |  | COc1ccc2c(c1)CCC=C2CCCN1CCN(c2ccccn2)CC1 | 
